# Results published in patent EP4574817A1 (LoQus23 Therapeutics Limited, priority 2023, dated 2025).
# Experiments:
# [1] = biological target: T1, MutSβ (Homo sapiens, UniProt P20585+P43246); experiment: MutSβ ADP Glo Assay; type: biochemical; details: 20nM MutSβ, 30nM CAG DNA, 25 µM ATP, 2 hours at room temperature
# T1 construct: purchased AMRI
# Procedure: Biological Example A - MutSβ Assay
# • MutSβ (supplied by AMRI) stored at -70°C • ADP Glo Kinase Assay Kit (Promega: V9102) stored at -20°C • ATP (supplied within the ADP Glo Kit) stored at -20°C • 1M KCI (Sigma Aldrich: P9333) stored at 2-8°C • 1 M HEPES pH 7.5 (Gibco: M15630-080) stored at 2-8°C • 1M MgCl2 (Sigma Aldrich: M1028-100mL) stored at 2-8°C • Tween-20 (Sigma Aldrich: P1379) (10% solution) stored at 2-8°C • 500mM DTT (Sigma Aldrich: 10197777001) stored at -20°C • CAG loop DNA for MutSβ (made in house) stored at -20°C • MilliQ water stored at room temperature
# • 1. Prepare the buffer fresh each day • 2. Take the enzyme from the freezer, thaw in room temperature water and centrifuge at 13,000 rpm for 10 minutes at 2-8C, then make up enzyme and ATP stocks • 3. Quality Control the multidrop head to a %CV of <2% • 4. Add 3µL of 33.34nM MutSβ and 50.01nM CAG looped DNA solution […] to each well in columns 1 and 3-23 of the plate • 5. Pre-incubate the MutSβ and buffer mix for 10 minutes with the compounds • 6. Wash the multidrop head through with MilliQ water (for at least 30 seconds) • 7. Add 3µL of MutSβ Assay buffer (without enzyme) to columns 2 and 24 for the vehicle controls • 8. Wash the multidrop head through with MilliQ water (for at least 30 seconds) • 9. Add 2µL of 62.5µM ATP to each well of the whole plate, then wash with MilliQ water (for a minimum of 30 seconds) • 10. Centrifuge plate for 1 minute at 1000 rpm • 11. Incubate for 2 hours at room temperature • 12. Add 5µL of ADP Glo reagent to each well of the whole plate and wash the multidrop head with MilliQ water (for a minimum of 30 seconds) • 13. Incubate for 40 minutes at room temperature (minimum requirement) • 14. Add 10µL of Kinase Detection Reagent to each well of the whole plate • 15. Wash the multidrop head with MilliQ water more than 1 minute and then dry • 16. Remove the head and put the cover back on for overnight storage • 17. Incubate for 30 minutes at room temperature (minimum requirement) • 18. Read on a microplate reader
# [2] = test system: U20S-IC6 cells; experiment: Lo-Q platform assay (CAG repeat expansion in a clonal cell line with tetracycline-regulated exon 1 HTT ~100 CAG / nanoluc); type: cell-based; details: 336 h, 2-week assay with tetracycline pulsing, read-out: Minimum effective concentration (MEC)
# Source text: The cell line that was used in the assay below was generated as follows:
# The pcDNA™4/TO vector contains two tetracycline operator 2 (TetO2) sites within the human cytomegalovirus immediate-early (CMV) promoter for tetracycline regulated expression of your gene of interest (Yao et al., 1998). The TetO2 sequences serve as binding sites for four Tet repressor molecules (comprising two Tet repressor homodimers) and confer tetracycline-responsiveness to the gene of interest. In the absence of tetracycline, expression of your gene of interest is repressed by the binding of Tet repressor homodimers to the TetO2 sequences. Addition of tetracycline to the cells de-represses the hybrid CMV/TetO2 promoter in pcDNA™4/TO and allows expression of your gene of interest. The pcDNA™6/TR regulatory plasmid is designed for use with the T-REx™ System for tetracycline-regulated expression of the gene of interest in mammalian cells. (www.lifetechnologies.com).
# The expression sequence comprises exon 1 huntingtin with ~100 pure CAG repeats, a P2A self-cleaving peptide and a nanoluc sequence followed by a polyA signal. Full plasmid sequence is indicated (Seq ID NO:3). The plasmid contains sequences for ampicillin (bacterial propagation) and zeocin (mammalian cell lines) resistance.
# The U-2 OS cell line (purchased from LGC standards, ATCC) is derived from a moderately differentiated sarcoma from the tibia of an adolescent person. Karyotyping has shown that although there are a lot of chromosomal abnormalities the tumour suppressor genes p53 and pRb are still fully functional in the U2OS cell line.
# Routine culture of the adherent cells in non-PDL plastic ware in a humidified 37°C incubator with 5% CO2. Cells were maintained in McCoy's 5A (modified) medium with GlutaMAX supplement (Life Technologies 3660-021) and tetracycline-free FBS (Clontech 631106). Maintenance medium for the clonal cell lines expressing Tet repressor and exon 1 HTT/nanoluc constructs were additionally supplemented with zeocin to 100 ug/ml and blasticidin to 1.25 ug/ml. Cells were passaged at 70-80% confluence once or twice a week, either to a split ratio or defined seeding density using DPBS and TrypLE express enzyme (1x, no phenol red, Life technologies 12604-039) was used to dissociate the cells. Cells were frozen with Cell Banker (AMSBIO 11891) or with medium plus 10% DMSO and stored in liquid nitrogen vapour phase.
# Stable, clonal cell lines (e.g. 1C6) are leveraged either identify potential druggable targets, and to assess the effectiveness of therapeutic compounds against a Huntington's disease, by way of quantifying CAG repeats expansion rates.
# • Place a vial of the cell line U20S-IC6 (1-2×10^6 cells/mL), produced as described above, in a water bath at 37°C for 30 s. Once thawed, quickly transfer the cells into a 15 mL falcon tube containing 9 mL of McCoys 5A media, supplemented with 10% Tet-free FBS. • Pellet the cells by centrifugation at 300 x g for 5 m and discard the supernatant. • Resuspend the cell pellet in 10 mL fresh media and transfer to a sterile T75 culture flask. • Inspect the culture after 24 h and maintain the cells below 80% confluency, typically passaging every 3-4 days.
# The Lo-Q platform has been optimised to run as a 2-week assay, following the standard processes detailed in the schematic in Figure 1A.
# • Cell seeding for Lo-Q platform assays should be initiated on Mondays (am) to ensure Tetracycline pulsing can be maintained every other day. • The Friday prior to initiating any Lo-Q platform assay ensure there are sufficient cells in culture to seed the required number of assay plates. If required, passage the cells, otherwise perform a media change to McCoys 5A, 10% Tet-free FBS, 1.25 µg/mL Blasticidin®, and 100 µg/mL Zeocin®. • On the Monday morning, aspirate the media from the required number of culture flasks containing U20S-IC6 cells and wash with 2 mL PBS. • Aspirate the PBS and add 2 mL 0.25% Trypsin EDTA. […]
# T1 sequence (P43246 whole entry): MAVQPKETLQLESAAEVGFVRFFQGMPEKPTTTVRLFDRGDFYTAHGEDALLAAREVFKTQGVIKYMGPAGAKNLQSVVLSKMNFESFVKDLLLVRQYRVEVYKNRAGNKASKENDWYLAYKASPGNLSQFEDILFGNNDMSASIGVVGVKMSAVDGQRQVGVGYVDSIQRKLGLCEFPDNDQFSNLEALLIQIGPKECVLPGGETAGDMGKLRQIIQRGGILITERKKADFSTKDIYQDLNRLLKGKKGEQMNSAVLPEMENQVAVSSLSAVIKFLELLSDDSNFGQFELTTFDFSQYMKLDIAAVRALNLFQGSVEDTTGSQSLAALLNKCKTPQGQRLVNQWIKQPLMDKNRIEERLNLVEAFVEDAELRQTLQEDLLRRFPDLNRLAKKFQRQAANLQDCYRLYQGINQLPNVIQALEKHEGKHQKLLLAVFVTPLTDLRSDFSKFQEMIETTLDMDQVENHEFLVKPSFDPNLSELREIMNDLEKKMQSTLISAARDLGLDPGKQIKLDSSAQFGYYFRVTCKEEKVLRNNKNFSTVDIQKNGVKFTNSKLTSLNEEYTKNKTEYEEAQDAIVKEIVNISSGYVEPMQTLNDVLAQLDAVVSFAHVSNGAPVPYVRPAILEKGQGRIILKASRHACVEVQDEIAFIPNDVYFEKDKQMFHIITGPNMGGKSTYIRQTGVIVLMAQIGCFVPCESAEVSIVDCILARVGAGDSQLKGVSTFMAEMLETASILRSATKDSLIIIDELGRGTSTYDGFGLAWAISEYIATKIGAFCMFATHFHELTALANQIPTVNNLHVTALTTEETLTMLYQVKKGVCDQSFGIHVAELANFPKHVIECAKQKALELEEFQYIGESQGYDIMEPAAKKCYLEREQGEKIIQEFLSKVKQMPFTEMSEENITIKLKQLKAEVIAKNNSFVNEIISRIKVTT
# T1 sequence (P20585 whole entry): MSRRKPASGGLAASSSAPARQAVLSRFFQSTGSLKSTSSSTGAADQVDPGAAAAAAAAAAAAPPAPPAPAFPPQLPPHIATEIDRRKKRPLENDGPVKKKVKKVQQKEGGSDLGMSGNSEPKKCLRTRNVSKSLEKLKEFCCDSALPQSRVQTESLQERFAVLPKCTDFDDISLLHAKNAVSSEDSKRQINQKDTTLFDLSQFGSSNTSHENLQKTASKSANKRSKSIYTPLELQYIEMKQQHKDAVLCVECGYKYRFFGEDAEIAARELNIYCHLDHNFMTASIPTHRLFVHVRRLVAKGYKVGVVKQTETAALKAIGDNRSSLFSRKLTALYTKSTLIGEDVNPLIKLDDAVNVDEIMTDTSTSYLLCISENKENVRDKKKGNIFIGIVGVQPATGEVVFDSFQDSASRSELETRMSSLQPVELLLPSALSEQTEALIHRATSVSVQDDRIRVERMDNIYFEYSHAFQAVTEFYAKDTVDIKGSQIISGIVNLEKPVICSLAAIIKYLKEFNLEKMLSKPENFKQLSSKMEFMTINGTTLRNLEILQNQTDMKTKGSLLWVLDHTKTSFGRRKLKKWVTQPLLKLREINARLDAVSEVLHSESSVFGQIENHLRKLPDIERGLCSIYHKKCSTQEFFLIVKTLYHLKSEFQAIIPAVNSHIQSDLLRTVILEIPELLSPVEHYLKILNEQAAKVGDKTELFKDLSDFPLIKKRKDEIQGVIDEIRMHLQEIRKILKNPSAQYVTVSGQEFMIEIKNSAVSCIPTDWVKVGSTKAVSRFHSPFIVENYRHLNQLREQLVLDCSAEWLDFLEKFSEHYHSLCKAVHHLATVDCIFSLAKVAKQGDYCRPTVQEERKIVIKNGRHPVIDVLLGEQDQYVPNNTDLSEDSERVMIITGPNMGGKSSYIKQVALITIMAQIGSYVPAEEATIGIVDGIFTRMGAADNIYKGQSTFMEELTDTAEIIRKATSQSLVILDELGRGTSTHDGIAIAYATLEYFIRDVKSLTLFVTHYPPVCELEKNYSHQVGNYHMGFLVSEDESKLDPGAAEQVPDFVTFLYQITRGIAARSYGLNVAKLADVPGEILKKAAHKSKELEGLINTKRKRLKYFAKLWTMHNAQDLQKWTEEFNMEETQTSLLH
IC50 [1],Structure (SMILES),minimal effective concentration [2]
≤ 500 nM,"CNS(=O)(=O)OCC(=O)N(C)c1nc(C)c(Cc2cccc(Cl)c2)s1 [Example 1, 2-((5-(3-chlorobenzyl)-4-methylthiazol-2-yl)(methyl)amino)-2-oxoethyl methylsulfamate]",≤ 0.1 µM
≤ 500 nM,"CNS(=O)(=O)OCC(=O)Nc1nc(C)c(Cc2cccc(Br)c2)s1 [Example 10, 2-((5-(3-bromobenzyl)-4-methylthiazol-2-yl)amino)-2-oxoethyl methylsulfamate]",0.1 to 0.5 µM
≤ 500 nM,"CNS(=O)(=O)OCC(=O)Nc1nc(C)c(Cc2ccc(Cl)c(Cl)c2)s1 [Example 12, 2-((5-(3,4-dichlorobenzyl)-4-methylthiazol-2-yl)amino)-2-oxoethyl methylsulfamate]",0.5 to 1 µM
1000 to 10000 nM,"CNS(=O)(=O)OCC(=O)Nc1nc(C)c(Cc2ccc(F)c(F)c2)s1 [Example 14, 2-((5-(3,4-difluorobenzyl)-4-methylthiazol-2-yl)amino)-2-oxoethyl methylsulfamate]",0.1 to 0.5 µM
1000 to 10000 nM,"CCNS(=O)(=O)OCC(=O)Nc1nc(C)c(Cc2ccc(C)cc2)s1 [Example 15, 2-((4-methyl-5-(4-methylbenzyl)thiazol-2-yl)amino)-2-oxoethyl ethylsulfamate]",0.5 to 1 µM
500 to 1000 nM,"CNS(=O)(=O)OCC(=O)Nc1nc(C)c(Cc2cccc(Cl)c2)s1 [Example 19, 2-((5-(3-chlorobenzyl)-4-methylthiazol-2-yl)amino)-2-oxoethyl methylsulfamate]",≤ 0.1 µM
1000 to 10000 nM,"CNS(=O)(=O)OCC(=O)Nc1nc(C)c(Cc2cccc(F)c2)s1 [Example 27, 2-((5-(3-fluorobenzyl)-4-methylthiazol-2-yl)amino)-2-oxoethyl methylsulfamate]",0.1 to 0.5 µM
1000 to 10000 nM,"CCN(C)S(=O)(=O)OCC(=O)Nc1nc(C)c(Cc2ccc(C)cc2)s1 [Example 39, 2-((4-methyl-5-(4-methylbenzyl)thiazol-2-yl)amino)-2-oxoethyl ethyl(methyl)sulfamate]",1 to 5 µM
≤ 500 nM,"CCNS(=O)(=O)OCC(=O)Nc1nc(C)c(Cc2cccc(Cl)c2)s1 [Example 46, 2-((5-(3-chlorobenzyl)-4-methylthiazol-2-yl)amino)-2-oxoethyl ethylsulfamate]",≤ 0.1 µM
